These results are taken from patent publication US20080152640A1, “Means and Methods For Treating a Disease Which is Associated With an Excess Transport of Hyaluronan Across a Lipid Bilayer” (priority 2003, published 2008).

Where two headings read alike, the source gives them in different places. Some results are limits rather than exact numbers.

For experiment [1], the system named is hyaluronan synthase.
The test system of experiment [2] is human skin fibroblasts. Description: Proliferation of human skin fibroblasts (cell counting). As to conditions: Homo sapiens, Skin fibroblast, read-out: Proliferation (IC50). It counts as cell-based. As to the method: Human fibroblasts were grown in […] in Dulbecco's modified Eagles medium supplemented with streptomycin/penicillin (100 units of each/ml), kanamycin (100 units/ml) and 10% foetal calf serum. Cell proliferation was determined by cell counting after trypsinisation three days after seeding.

For experiment [3], the system named is human fibroblasts. The experiment can be described thus: Export of fluorescent hyaluronan oligosaccharides from the cytosol of human fibroblasts. The experiment is classed as cell-based. As to the method: The media were withdrawn and the cells were incubated at 37° C. with DMEM/water (3:2, v/v) for 2 min. The cells were subjected twice to this incubation sequence and then grown further in DMEM. […] Fluorescent high molecular weight hyaluronan and fluorescent oligosaccharides were introduced into the cytosol by osmotic lysis of pinocytotic vesicles. The kinetics of export was measured in a fluorescent ELISA reader in the presence and absence of the hyaluronan transport inhibitor benzbromaron.

Experiment [4] addresses T1, MRP4 (Homo sapiens, UniProt O15439).
T1 sequence (O15439 1-1325): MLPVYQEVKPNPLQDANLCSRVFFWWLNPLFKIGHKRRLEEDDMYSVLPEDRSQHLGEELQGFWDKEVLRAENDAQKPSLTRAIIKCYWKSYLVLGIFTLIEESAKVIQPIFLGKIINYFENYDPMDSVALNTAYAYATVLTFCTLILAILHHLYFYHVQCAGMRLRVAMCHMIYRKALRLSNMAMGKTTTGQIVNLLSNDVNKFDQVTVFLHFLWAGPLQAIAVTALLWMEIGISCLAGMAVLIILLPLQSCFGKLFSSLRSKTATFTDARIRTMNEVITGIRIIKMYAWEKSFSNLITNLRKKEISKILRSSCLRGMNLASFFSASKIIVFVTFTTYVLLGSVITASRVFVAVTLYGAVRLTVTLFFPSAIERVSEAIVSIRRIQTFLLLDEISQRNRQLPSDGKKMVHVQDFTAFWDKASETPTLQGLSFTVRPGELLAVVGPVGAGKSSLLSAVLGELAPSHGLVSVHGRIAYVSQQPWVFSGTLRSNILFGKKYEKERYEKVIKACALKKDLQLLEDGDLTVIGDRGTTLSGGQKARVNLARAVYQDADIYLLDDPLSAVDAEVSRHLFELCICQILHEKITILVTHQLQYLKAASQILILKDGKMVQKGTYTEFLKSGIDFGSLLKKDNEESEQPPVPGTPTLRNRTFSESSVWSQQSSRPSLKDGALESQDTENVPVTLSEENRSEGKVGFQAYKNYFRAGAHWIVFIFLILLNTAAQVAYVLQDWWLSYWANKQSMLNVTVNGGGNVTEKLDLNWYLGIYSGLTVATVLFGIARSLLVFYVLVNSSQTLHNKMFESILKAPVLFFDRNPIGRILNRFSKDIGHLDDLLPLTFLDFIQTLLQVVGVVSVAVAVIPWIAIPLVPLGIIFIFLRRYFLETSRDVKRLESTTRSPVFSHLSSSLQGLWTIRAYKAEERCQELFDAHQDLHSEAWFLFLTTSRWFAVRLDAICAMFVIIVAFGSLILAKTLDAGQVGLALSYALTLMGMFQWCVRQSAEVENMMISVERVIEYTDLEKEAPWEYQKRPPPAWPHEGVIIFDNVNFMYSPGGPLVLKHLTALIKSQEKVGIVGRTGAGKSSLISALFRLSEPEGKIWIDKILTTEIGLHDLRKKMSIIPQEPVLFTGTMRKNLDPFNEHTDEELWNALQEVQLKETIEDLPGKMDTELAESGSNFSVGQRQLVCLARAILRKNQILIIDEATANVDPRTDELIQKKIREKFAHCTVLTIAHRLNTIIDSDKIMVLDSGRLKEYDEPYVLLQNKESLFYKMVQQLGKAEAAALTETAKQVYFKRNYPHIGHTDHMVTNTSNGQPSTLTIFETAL
As to conditions: cited from earlier work.

Experiment [5] addresses MRP5 (Homo sapiens, UniProt O15440). As to conditions: cited from earlier work.
Experiment [6] concerns human fibroblasts. Description: Hyaluronan production of human fibroblasts (ELISA of culture medium). It counts as cell-based. Particulars: Homo sapiens, Fibroblast, read-out: HA production (IC50).
Experiment [7] addresses MDR1 (Homo sapiens, UniProt P08183). As to conditions: cited from earlier work.
Experiment [8] concerns hyaluronan transport. The experiment can be described thus: Inhibition of hyaluronan transport (export) from human fibroblasts, discussion of Example 9. As to conditions: for inhibition of hyaluronan transport (words): human fibroblasts.
Experimental: Cells from five culture flasks (180 cm2 growth area) were washed with cold phosphate buffered saline (PBS), harvested with the aid of a rubber policeman, sedimented at 1500 g for 5 min and suspended in 30 ml of ice-cold PBS. The cells were transferred into a Parr-cell disruption bomb, exposed to a nitrogen pressure of 900 psi for 15 min and disrupted by nitrogen cavitation [18] and the particulate fraction was obtained by centrifugation at 40000 g for 20 min. […] Hyaluronan synthesis was stopped by adding a solution of 10% sodium dodecylsuifate (SDS) to a final concentration of 1%. The mixtures were applied to descending paper chromatography that was developed with ethanol/aq. 1 M ammonium acetate pH 5.5 (13:7) as solvent. After 18 h the radioactivity of [14C]hyaluronan at the origin was determined.
Trypsinised fibroblasts were suspended in Dulbecco's medium at 10^5 cells/ml and 100 μl aliquots were transferred to a 96 well microtiter plate. The first row received 200 μl of the suspension and 20 μl of the multidrug resistance inhibitors dissolved in DMSO at concentrations of 4 mM. A serial dilution to the inhibitors was established by transfer of 100 μl aliquots from the first row to the following rows. All experiments were performed in duplicates. […] The cells were incubated for 2 days at 37° C. and aliquots (5 and 20 μl) of the culture medium were used for measurement of the hyaluronan concentration in the cell culture medium by an ELISA [19]. […] The mixtures were transferred to the hyaluronan-coated test plate and incubated for 1 hour at 37° C. The microtiter plate was washed three times with buffer A and incubated with 100 μl/well of a solution of streptavidin-horseraddish-peroxidase (Amersham) at a dilution of 1:100 in phosphate buffered saline, 0.1% Tween-20 for 30 min at room temperature. The plate was washed five times with buffer A and the colour was developed by incubation with a 100 μl/well of a solution of 5 mg o-phenylenediamine and 5 μl 30% H2O2 in 10 ml of 0.1 M citrate-phosphate buffer pH 5.3 for 25 min at room temperature. The adsorption was read at 490 nm. The concentrations in the samples were calculated from a logarithmic regression curve of the hyaluronan standard solutions.
Three parameters were measured: 1. The amount of hyaluronan produced during growth into the culture supernatant. 2. The hyaluronan synthase activity in particulate membrane fractions to eliminate the possibility that inhibition of hyaluronan production in cell culture could be caused indirectly by cellular mediators. 3. The effect on cell proliferation, because hyaluronan synthesis is also required for detachment during mitosis and growth of the human HT1080 cell line [14].

Sequence of MRP5 (O15440 whole entry): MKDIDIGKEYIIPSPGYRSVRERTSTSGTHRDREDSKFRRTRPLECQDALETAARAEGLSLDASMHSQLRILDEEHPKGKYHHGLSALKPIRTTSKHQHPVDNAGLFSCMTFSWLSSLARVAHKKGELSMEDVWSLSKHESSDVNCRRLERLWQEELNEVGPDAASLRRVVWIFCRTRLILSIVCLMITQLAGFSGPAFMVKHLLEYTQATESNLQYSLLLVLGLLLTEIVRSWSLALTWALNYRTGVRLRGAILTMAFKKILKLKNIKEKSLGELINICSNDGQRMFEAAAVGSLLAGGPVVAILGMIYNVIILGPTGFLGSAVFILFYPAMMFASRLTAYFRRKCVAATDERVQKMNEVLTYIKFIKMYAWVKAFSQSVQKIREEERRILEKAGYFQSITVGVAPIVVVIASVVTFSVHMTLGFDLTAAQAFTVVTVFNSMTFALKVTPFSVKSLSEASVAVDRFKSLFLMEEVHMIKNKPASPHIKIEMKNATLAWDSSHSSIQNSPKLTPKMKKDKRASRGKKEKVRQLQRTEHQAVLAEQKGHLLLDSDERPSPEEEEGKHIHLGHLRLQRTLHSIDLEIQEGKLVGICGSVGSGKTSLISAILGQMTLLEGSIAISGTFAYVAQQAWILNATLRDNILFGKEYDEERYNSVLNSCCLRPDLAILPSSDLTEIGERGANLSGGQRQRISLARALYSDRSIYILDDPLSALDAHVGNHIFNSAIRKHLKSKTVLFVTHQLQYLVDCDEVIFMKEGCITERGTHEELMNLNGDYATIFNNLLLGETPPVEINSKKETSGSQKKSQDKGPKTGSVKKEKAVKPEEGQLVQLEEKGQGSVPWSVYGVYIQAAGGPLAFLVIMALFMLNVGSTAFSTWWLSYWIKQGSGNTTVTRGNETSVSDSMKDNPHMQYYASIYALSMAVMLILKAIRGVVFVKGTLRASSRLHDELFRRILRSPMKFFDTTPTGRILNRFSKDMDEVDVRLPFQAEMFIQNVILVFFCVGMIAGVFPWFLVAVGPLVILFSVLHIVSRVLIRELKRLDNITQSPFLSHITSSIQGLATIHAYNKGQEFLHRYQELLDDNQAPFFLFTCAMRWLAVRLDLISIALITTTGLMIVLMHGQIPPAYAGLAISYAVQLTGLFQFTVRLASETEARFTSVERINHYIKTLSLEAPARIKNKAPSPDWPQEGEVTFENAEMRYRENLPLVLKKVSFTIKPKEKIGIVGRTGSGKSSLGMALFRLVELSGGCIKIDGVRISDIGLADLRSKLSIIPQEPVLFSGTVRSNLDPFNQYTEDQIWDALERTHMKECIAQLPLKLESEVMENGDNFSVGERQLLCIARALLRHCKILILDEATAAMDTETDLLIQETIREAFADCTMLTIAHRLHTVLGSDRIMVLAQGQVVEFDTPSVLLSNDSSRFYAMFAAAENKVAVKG
Sequence of MDR1 (P08183 whole entry): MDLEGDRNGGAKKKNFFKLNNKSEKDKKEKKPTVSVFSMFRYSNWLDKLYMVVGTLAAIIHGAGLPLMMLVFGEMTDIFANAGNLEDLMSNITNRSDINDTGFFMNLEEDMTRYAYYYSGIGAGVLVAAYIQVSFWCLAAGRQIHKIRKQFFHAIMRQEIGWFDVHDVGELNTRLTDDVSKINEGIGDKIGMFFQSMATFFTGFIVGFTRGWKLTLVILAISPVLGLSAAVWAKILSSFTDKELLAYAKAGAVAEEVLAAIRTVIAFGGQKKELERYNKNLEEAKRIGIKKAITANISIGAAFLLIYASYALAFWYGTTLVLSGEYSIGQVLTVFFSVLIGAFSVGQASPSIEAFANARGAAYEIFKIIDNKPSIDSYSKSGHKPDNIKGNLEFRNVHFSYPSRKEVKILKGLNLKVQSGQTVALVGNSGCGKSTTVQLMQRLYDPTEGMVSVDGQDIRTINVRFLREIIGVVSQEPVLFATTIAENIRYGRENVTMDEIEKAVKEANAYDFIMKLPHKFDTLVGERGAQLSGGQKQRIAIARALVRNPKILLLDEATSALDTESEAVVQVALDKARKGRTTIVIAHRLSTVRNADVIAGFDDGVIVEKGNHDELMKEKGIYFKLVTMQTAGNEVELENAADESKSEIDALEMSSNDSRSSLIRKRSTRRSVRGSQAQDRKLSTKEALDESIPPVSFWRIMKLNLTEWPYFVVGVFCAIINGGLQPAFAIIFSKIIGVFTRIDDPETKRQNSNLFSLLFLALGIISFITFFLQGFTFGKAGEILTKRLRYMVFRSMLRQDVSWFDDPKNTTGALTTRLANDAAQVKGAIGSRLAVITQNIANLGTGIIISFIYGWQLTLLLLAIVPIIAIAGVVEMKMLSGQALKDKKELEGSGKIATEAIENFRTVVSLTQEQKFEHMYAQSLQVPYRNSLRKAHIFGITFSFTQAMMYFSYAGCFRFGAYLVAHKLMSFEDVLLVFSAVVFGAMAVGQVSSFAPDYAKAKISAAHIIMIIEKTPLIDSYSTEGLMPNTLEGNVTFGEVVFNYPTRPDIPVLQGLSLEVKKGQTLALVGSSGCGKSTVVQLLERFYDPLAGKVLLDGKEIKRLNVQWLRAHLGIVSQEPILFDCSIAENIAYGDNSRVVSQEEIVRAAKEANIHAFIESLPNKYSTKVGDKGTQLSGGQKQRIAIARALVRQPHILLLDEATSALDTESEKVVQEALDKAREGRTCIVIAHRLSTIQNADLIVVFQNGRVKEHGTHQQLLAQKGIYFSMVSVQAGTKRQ

On to `CCc1oc2ccccc2c1C(=O)c1cc(Br)c(O)c(Br)c1` [Benzbromarone], for which, in experiment [1] (membranes from human fibroblasts), the “hyaluronan transport / synthase activity in membranes” value was “almost completely inhibited”. For the same compound, the IC50 was 12 µM in experiment [1] (read-out: HA synthase activity (IC50), membranes of human fibroblasts); 75 µM in experiment [2]; 150 µM in experiment [4] (read-out: IC50, 9-(2-phosphonomethoxyethyl)adenine (PMEA) transport by MRP4, substrate PMEA); 150 µM in experiment [4] (read-out: IC50 for MRP4); 150 µM in experiment [4] (read-out: published inhibitory concentrations IC50 or Ki, MRP4); 150 µM in experiment [5] (read-out: IC50 for MRP5). In addition, the IC50 in experiment [5] (substrate PMEA, read-out: IC50, PMEA transport by MRP5) was 150 µM; in experiment [5] (substrate S-(2,4-dinitrophenyl)glutathione, read-out: IC50, MRP5 mediated transport of S-(2,4-dinitrophenyl)glutathione), less than 5 µM; in experiment [6], 30 µM; in experiment [7] it was greater than 800 µM; in experiment [8] (Homo sapiens, Fibroblast, read-out: IC50 for hyaluronan transport (export)), 25 µM. Also, in experiment [3], the “export of fluorescent hyaluronan oligosaccharides from the cytosol” value is given as “inhibits the export”. The entries for the “inhibition of hyaluronan transport (words)” value in experiment [8] and in experiment [8] (listed as benzbromarone) were “very effective inhibitor” and “inhibited hyaluronan transport”, respectively.
